# Source: publication PMC8550792, “Evolution of kinase polypharmacology across HSP90 drug discovery” (Cell Chemical Biology, 2021)
# Where two headings read alike, the source gives them in different places.
# Tests used:
# Experiment in all cases: biochemical
# Assay type in all cases: biochemical
# 382 unique human kinases [1] = target: T1, 382 unique human kinases (Homo sapiens, UniProt O00444); conditions: PLK4/SAK, 10 uM; for remaining activity at 10 µM: read-out: % Enzyme Activity (relative to DMSO controls)
# T1 construct: purchased Reaction Biology (HotSpot contract assay)
# T1 sequence (O00444 1-970): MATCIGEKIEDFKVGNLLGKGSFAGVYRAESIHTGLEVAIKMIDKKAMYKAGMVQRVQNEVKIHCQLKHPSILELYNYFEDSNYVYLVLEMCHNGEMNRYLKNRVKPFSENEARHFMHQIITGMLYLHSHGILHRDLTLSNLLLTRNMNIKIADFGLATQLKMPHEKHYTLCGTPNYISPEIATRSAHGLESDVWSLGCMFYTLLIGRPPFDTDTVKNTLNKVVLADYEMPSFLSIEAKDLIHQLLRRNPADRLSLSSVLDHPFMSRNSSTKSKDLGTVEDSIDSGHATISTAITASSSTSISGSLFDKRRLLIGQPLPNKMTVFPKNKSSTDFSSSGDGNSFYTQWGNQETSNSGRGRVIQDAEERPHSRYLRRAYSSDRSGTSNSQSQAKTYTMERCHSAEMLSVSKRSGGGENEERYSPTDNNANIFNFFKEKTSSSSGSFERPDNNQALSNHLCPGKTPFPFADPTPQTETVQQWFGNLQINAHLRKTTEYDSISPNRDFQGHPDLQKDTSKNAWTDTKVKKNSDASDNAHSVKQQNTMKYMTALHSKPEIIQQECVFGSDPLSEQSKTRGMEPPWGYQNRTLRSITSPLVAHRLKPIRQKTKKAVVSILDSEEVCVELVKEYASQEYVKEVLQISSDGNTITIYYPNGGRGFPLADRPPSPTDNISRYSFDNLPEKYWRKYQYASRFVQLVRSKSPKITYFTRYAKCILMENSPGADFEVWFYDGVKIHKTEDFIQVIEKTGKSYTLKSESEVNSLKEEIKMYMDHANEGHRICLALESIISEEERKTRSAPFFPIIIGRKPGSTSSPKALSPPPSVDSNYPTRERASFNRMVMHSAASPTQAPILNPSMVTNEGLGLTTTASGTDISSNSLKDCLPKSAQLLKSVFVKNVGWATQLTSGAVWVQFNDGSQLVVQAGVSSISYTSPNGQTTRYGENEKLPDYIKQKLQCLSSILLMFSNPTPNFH
# 382 unique human kinases [2] = target: T2, 382 unique human kinases (Homo sapiens, UniProt P10721, K642E); conditions: kinase c-Kit (K642E), compound 10 uM; for remaining activity at 10 µM: read-out: % Enzyme Activity (relative to DMSO controls)
# T2 construct: purchased Reaction Biology (HotSpot contract assay)
# 382 unique human kinases [3] = target: T3, 382 unique human kinases (Homo sapiens, UniProt P43403); conditions: ZAP70, compound at 10 uM, duplicate values; for remaining activity at 10 µM: read-out: % Enzyme Activity (relative to DMSO controls)
# T3 construct: purchased Reaction Biology (HotSpot contract assay)
# T3 sequence (P43403 1-619): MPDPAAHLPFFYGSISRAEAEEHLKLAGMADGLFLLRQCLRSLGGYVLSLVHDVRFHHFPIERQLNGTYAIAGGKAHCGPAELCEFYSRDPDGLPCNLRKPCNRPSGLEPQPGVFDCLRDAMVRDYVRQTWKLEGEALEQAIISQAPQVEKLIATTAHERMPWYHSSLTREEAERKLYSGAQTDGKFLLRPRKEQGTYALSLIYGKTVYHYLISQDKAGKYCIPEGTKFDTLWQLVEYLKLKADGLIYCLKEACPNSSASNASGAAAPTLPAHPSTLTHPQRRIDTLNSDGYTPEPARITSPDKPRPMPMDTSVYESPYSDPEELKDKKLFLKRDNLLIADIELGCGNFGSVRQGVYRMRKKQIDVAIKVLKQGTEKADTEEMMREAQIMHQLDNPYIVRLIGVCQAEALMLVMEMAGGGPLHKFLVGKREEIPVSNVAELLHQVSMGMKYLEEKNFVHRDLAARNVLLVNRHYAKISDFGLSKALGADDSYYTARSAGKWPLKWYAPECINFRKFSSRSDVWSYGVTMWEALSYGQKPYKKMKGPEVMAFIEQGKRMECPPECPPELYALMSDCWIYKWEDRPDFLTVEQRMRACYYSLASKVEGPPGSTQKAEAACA
# 382 unique human kinases [4] = target: T4, 382 unique human kinases (Homo sapiens, UniProt Q02763); conditions: for remaining activity at 10 µM: read-out: % Enzyme Activity (relative to DMSO controls)
# T4 construct: purchased Reaction Biology (HotSpot contract assay)
# 382 unique human kinases [5] = target: T5, 382 unique human kinases (Homo sapiens, UniProt O75716); conditions: STK16, [ATP] 5 µM, compound 10 uM; for remaining activity at 10 µM: read-out: % Enzyme Activity (relative to DMSO controls)
# T5 construct: purchased Reaction Biology (HotSpot contract assay)
# 382 unique human kinases [6] = target: T6, 382 unique human kinases (Homo sapiens, UniProt P43405); conditions: SYK, 10 uM; for remaining activity at 10 µM: read-out: % Enzyme Activity (relative to DMSO controls)
# T6 construct: purchased Reaction Biology (HotSpot contract assay)
# 382 unique human kinases [7] = target: T7, 382 unique human kinases (Homo sapiens, UniProt P54762); conditions: EPHB1, [ATP] 100 µM, compound 10 uM; for remaining activity at 10 µM: read-out: % Enzyme Activity (relative to DMSO controls)
# T7 construct: purchased Reaction Biology (HotSpot contract assay)
# T7 sequence (P54762 18-984): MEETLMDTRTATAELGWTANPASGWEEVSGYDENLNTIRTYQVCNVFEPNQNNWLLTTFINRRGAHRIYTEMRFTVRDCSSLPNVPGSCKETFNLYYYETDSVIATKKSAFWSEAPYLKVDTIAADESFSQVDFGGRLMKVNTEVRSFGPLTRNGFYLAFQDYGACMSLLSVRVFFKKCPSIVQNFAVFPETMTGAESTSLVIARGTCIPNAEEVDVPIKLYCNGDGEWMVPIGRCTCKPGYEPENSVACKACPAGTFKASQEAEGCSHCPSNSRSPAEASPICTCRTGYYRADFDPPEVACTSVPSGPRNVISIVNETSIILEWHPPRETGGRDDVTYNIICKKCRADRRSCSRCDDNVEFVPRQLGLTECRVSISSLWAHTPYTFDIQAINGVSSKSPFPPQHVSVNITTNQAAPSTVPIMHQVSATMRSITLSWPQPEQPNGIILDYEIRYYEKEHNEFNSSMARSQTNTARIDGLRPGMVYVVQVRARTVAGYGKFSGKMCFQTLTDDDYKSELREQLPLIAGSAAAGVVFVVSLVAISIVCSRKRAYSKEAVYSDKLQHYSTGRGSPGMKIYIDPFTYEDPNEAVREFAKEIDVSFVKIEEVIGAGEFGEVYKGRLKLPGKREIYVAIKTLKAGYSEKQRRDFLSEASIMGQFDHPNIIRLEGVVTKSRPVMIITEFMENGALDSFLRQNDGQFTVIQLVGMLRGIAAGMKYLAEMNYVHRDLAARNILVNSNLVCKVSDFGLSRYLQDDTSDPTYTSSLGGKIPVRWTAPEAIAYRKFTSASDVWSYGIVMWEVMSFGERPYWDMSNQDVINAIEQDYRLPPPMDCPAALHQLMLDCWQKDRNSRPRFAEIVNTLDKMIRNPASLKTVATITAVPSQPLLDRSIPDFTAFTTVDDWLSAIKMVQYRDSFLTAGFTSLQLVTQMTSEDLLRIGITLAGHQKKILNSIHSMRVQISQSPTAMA
# [8] = TIE2/TEK, compound at 10 uM, duplicate values
# T5 sequence (O75716 whole entry): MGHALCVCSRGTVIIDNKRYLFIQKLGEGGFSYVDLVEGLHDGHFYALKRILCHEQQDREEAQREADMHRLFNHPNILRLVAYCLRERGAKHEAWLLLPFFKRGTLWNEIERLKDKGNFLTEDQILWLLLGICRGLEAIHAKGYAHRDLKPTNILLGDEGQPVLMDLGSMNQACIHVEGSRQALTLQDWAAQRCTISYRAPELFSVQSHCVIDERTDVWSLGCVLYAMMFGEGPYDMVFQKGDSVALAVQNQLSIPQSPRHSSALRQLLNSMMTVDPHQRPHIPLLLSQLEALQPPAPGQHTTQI
# T2 sequence (P10721 26-976 K642E): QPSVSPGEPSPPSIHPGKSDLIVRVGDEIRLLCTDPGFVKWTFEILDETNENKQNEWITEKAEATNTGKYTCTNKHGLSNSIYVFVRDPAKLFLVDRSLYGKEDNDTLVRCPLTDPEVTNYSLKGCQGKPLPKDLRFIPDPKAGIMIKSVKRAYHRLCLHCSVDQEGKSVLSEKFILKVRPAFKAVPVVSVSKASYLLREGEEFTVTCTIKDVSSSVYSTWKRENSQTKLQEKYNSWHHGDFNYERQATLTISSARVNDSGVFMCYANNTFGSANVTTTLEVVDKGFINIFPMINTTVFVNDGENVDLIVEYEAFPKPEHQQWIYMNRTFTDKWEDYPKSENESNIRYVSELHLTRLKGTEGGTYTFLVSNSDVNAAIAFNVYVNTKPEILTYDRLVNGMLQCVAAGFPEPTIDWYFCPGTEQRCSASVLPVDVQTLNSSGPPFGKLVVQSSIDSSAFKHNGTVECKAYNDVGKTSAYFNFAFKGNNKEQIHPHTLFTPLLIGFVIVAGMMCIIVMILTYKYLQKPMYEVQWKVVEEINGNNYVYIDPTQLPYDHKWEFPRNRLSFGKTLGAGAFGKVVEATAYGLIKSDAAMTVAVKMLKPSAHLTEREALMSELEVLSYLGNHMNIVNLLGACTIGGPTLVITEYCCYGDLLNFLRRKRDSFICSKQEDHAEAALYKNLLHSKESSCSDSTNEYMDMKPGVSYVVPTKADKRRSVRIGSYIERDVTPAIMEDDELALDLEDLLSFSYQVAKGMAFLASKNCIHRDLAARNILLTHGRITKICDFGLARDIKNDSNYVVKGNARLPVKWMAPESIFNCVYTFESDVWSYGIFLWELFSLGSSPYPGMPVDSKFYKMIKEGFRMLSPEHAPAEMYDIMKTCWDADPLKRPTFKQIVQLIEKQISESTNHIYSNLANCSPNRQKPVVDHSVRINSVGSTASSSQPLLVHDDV
Structure (SMILES),remaining activity at 10 µM (382 unique human kinases [1]) [%],remaining activity at 10 µM (382 unique human kinases [2]) [%],remaining activity at 10 µM (382 unique human kinases [3]) [%],"remaining activity at 10 µM (382 unique human kinases [4]; TIE2 (A1124V), 10 uM) [%]",remaining activity at 10 µM (382 unique human kinases [4]; [8]) [%],% Enzyme Activity (relative to DMSO controls) (382 unique human kinases [5]) [%],remaining activity at 10 µM (382 unique human kinases [5]) [%],% Enzyme Activity (relative to DMSO controls) (382 unique human kinases [6]) [%],remaining activity at 10 µM (382 unique human kinases [6]) [%],% Enzyme Activity (relative to DMSO controls) (382 unique human kinases [7]) [%],remaining activity at 10 µM (382 unique human kinases [7]) [%],% Enzyme Activity (relative to DMSO controls) (382 unique human kinases [1]) [%],% Enzyme Activity (relative to DMSO controls) (382 unique human kinases [2]) [%],% Enzyme Activity (relative to DMSO controls) (382 unique human kinases [3]) [%],"% Enzyme Activity (relative to DMSO controls) (382 unique human kinases [4]; TIE2 (A1124V), 10 uM) [%]",% Enzyme Activity (relative to DMSO controls) (382 unique human kinases [4]; [8]) [%]
CC(C)c1cc(-c2n[nH]c(=O)n2-c2ccc3c(ccn3C)c2)c(O)cc1O [Ganetespib (STA9090)],78.2,85.5,108,71,101,,,,,,,,,,,
CCNC(=O)c1noc(-c2cc(C(C)C)c(O)cc2O)c1-c1ccc(CN2CCOCC2)cc1 [Luminespib],,,,,,98.01,98.4,101.25,102,90.73,92.3,,,,,
CCNC(=O)c1noc(-c2cc(C(C)C)c(O)cc2O)c1-c1ccc(CN2CCOCC2)cc1 [Luminespib (AUY-922)],89.6,82.3,105,96.5,108,,,,,,,86.84,81.47,104.43,95.16,106.94
CC(C)c1cc(-c2n[nH]c(=O)n2-c2ccc3c(ccn3C)c2)c(O)cc1O [Ganetespib],,,,,,,32.4,,94,,36,,,,,
